Measured values from PubChem BioAssay (NCI).
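96-well plates; 48 h exposure; 5 concentrations. Endpoints by linear interpolation between flanking doses. Not reached: highest tested concentration assigned. At the TGI there is no net growth.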

Columns and labels:
Experiment in all cases: inhibition of tumour cell growth, NCI panel, 48 h
[1] = system: K-562 leukemia
[2] = system: SR leukemia
[3] = system: OVCAR-3 ovarian
[4] = system: LOX IMVI melanoma
[5] = system: HL-60(TB) leukemia
[6] = system: SNB-75 CNS
[7] = system: 786-0 renal
[8] = system: COLO 205 colon
[9] = system: HCC-2998 colon
[10] = system: BT-549 breast

| Compound | TGI [1] | TGI [2] | TGI [3] | TGI [4] | TGI [5] | TGI [6] | TGI [7] | TGI [8] | TGI [9] | TGI [10] |
| --- | --- | --- | --- | --- | --- | --- | --- | --- | --- | --- |
| CON(C)C(=O)C1CCCO1 (configuration not stated) | > 100 µM | > 100 µM | > 100 µM | > 100 µM | > 100 µM | > 100 µM | > 100 µM | > 100 µM | – | – |
| CC1(C)CC(C#Cc2ccccc2)CC(C)(C)N1O | > 100 µM | > 100 µM | 37.4 µM | 29.9 µM | 64.4 µM | 54.1 µM | 76.7 µM | 49.4 µM | 32.2 µM | – |
| CN(C)c1cccc2c1C(=O)C=CC21c2ccc(N(C)C)c3c(N(C)C)ccc(c23)C(c2ccccc2)C1c1ccccc1 (configuration not stated) | > 100 µM | 55.1 µM | 31.2 µM | 33.7 µM | 22.6 µM | 30.9 µM | 22.3 µM | 25.7 µM | 45.6 µM | – |
| O=C1/C(=C/c2cccc([N+](=O)[O-])c2)Sc2scc(-c3ccc([N+](=O)[O-])cc3)[n+]21 | – | – | > 100 µM | 46.3 µM | – | 32.1 µM | 38.3 µM | > 100 µM | 29.9 µM | 28.8 µM |
| O=C1OC(c2ccccc2)N(C(=O)c2ccccc2)C1Cc1ccc(OCc2ccccc2)cc1 (configuration not stated) | > 100 µM | > 100 µM | – | > 100 µM | > 100 µM | > 100 µM | > 100 µM | > 100 µM | > 100 µM | – |
| COc1cc(/C=C2\CCC(C)/C(=C\c3cc(OC)c(OC)c(OC)c3)C2=O)cc(OC)c1OC (configuration not stated) | 6.26 µM | – | – | > 100 µM | – | 50.8 µM | > 100 µM | 5.2 µM | – | 3.53 µM |
| CN1CCN(C2=C(Cl)C3(OCCS3)C(F)(F)C2(F)F)CC1 (configuration not stated) | > 100 µM | > 100 µM | > 100 µM | > 100 µM | > 100 µM | > 100 µM | > 100 µM | > 100 µM | – | – |
| CC(C)N1CN(c2ccccc2)C2(CCN(CCCC(=O)c3ccc(F)cc3)CC2)C1=O | 69.7 µM | 46.1 µM | 65.6 µM | 20.2 µM | 40.7 µM | > 91.6 µM | > 60.7 µM | 1.7 µM | 27.7 µM | – |
| Nc1ccc(-c2nn3c(COc4ccc(Cl)cc4)nnc3s2)cc1 | > 100 µM | – | > 100 µM | > 100 µM | > 100 µM | > 100 µM | > 100 µM | > 100 µM | > 100 µM | – |
| O=C1C(C(O)(C(F)(F)F)C(F)(F)F)CCC1C(O)(C(F)(F)F)C(F)(F)F (configuration not stated) | > 100 µM | 43.8 µM | > 100 µM | 10.6 µM | 6.44 µM | 7.61 µM | > 38.8 µM | 1.86 µM | – | – |
| CSc1nc2c(ncn2C2OC(CO)C(O)C(O)C2O)c(=O)[nH]1 (configuration not stated) | > 100 µM | – | > 100 µM | > 100 µM | > 100 µM | > 100 µM | – | > 100 µM | > 100 µM | – |
| O=C1C2=C(CCC2)Nc2cccc3ncn1c23 | > 100 µM | > 100 µM | – | > 100 µM | > 100 µM | – | > 100 µM | > 100 µM | > 100 µM | – |
| C=C1C(=O)C23C(O)CC4C5(C)CCCC4(C(O)OC5)C2C(OC(C)=O)CC1C3O (configuration not stated) | 11.7 µM | 18.5 µM | 28.2 µM | 29.2 µM | – | 16.6 µM | 19.2 µM | 18.9 µM | 32.4 µM | – |
| COc1ccc([C@H]2C=[N+]([O-])O[C@H](OC3CCCC3)[C@@H]2OC(C)=O)cc1OC | > 100 µM | > 100 µM | 72.4 µM | 31.3 µM | 39.1 µM | > 100 µM | – | 30.9 µM | 72.8 µM | – |
| COc1ccc(N2C(=O)C3c4[nH]c5ccccc5c4C4CCCCCCCCCC4C3C2=O)cc1 (configuration not stated) | > 10 µM | > 10 µM | > 10 µM | > 10 µM | > 10 µM | > 10 µM | – | > 10 µM | > 10 µM | – |
| O=C(O)/C=C\C(=O)Nc1ccc(S(=O)(=O)c2ccc(NC(=O)/C=C\C(=O)O)cc2)cc1 | > 100 µM | > 100 µM | > 100 µM | > 100 µM | > 100 µM | > 100 µM | > 100 µM | > 100 µM | – | – |
| COc1ccc(/C=N/n2c(C)nc3c(sc(=S)n3-c3ccccc3)c2=O)cc1 | 81.2 µM | > 100 µM | > 100 µM | – | 61.2 µM | 41.4 µM | – | > 100 µM | > 100 µM | – |
| O=C(CC(C(=O)c1ccco1)c1ccco1)c1ccco1 (configuration not stated) | > 100 µM | > 100 µM | > 100 µM | > 100 µM | > 100 µM | > 100 µM | > 100 µM | > 100 µM | > 100 µM | – |
| C[C@H]1OC(=O)[C@@H]2N=NN(Cc3ccccc3)[C@H]12 | > 100 µM | > 100 µM | > 100 µM | – | – | – | > 100 µM | > 100 µM | > 100 µM | – |
| O=C1C2=Nc3ccccc3C(O)(C(=O)O)N2c2ccccc21 (configuration not stated) | > 100 µM | > 100 µM | 58.5 µM | 59.2 µM | 77 µM | 74.2 µM | > 100 µM | 36.6 µM | > 100 µM | – |
